Article PMC10659432 (bioRxiv, 2023)

Tests used:
5-HT1FR [1] = biological target: T1, 5-HT1FR (Homo sapiens, UniProt P30939); assay: BRET Gi1 activation assay in transfected HEK293T cells, agonism; type: cell-based
5-HT1eR [2] = biological target: T2, 5-HT1eR (Homo sapiens, UniProt P28566); assay: cryoEM structure at […] Å
Target sequence in this assay (P28566 whole entry): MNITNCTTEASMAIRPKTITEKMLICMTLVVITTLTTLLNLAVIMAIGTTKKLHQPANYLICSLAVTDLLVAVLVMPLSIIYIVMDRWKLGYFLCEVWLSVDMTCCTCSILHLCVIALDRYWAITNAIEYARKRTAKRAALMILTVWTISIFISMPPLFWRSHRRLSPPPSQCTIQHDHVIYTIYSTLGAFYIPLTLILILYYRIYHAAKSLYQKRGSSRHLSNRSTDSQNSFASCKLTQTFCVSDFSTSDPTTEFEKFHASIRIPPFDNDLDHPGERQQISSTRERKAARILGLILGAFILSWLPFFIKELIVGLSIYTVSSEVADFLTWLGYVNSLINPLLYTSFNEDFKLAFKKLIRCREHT

5-HT1eR [3] = biological target: T2, 5-HT1eR; assay: BRET Gi1 activation assay in transfected HEK293T cells, agonism; type: cell-based
Target sequence in this assay (P63096 2-354): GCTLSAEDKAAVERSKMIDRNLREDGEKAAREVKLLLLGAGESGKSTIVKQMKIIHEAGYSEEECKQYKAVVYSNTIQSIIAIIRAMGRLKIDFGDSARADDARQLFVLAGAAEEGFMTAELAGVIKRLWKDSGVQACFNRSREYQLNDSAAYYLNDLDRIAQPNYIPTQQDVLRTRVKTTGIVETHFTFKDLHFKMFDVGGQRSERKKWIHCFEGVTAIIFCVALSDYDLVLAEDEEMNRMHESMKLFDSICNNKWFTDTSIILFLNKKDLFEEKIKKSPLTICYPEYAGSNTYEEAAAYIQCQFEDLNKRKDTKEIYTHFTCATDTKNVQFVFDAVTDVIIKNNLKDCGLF
Target sequence in this assay (P62873 2-340, further chain): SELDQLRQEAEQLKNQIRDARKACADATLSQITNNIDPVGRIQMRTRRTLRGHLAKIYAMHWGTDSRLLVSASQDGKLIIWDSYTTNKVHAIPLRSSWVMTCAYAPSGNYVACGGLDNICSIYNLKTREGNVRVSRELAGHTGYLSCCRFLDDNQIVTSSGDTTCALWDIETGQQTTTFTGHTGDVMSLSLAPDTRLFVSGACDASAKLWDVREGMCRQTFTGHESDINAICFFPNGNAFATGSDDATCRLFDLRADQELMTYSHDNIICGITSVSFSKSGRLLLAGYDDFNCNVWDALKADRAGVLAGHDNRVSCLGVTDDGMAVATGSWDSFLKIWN
Target sequence in this assay (P59768 2-68, further chain): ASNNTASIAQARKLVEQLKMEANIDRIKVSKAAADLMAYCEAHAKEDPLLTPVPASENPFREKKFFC
Target sequence in this assay (P28566 whole entry): as the sequence (P28566 whole entry) above

5-HT1FR [4] = biological target: T1, 5-HT1FR; assay: G protein BRET assay in transfected HEK293T cells, full agonism; type: cell-based
5-HT1eR [5] = biological target: T2, 5-HT1eR; assay: cryoEM structure at […] Å; type: cell-based
Target sequence in this assay (P28566 whole entry): as above

5-HT1FR [6] = biological target: T1, 5-HT1FR; assay: G protein BRET assay in transfected HEK293T cells, agonism; type: cell-based

T1 sequence (P62873 2-340): as the sequence (P62873 2-340, further chain) above
T1 sequence (P30939 whole entry): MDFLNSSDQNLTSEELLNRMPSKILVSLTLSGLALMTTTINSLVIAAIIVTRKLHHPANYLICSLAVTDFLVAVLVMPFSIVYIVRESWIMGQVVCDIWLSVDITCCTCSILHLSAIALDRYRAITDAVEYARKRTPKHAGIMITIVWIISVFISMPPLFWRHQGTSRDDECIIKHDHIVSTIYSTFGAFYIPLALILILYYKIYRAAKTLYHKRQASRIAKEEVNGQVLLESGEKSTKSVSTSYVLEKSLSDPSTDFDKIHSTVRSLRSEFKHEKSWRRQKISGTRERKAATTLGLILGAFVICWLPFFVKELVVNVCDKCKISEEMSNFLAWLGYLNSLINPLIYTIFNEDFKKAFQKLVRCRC
T1 sequence (P63096 2-354, further chain): as the sequence (P63096 2-354) above
T1 sequence (P59768 2-68, further chain): as the sequence (P59768 2-68, further chain) above

| SMILES | EC50 (5-HT1FR [1]) [nM] | EC50 (5-HT1eR [3]) [nM] | also measured |
| --- | --- | --- | --- |
| CN1CCN2c3ccccc3Cc3ccccc3C2C1 (stereo not shown) [mianserin] | 47.5 |  | EC50 (5-HT1eR [2]): 123 nM |
| CN1CCC(=C2c3ccccc3Sc3ccccc32)CC1 [pimethixene] | 456 | 353 |  |
| CC[C@@H](CO)NC(=O)[C@@H]1C=C2c3cccc4[nH]cc(c34)C[C@H]2N(C)C1 [methylergonovine] | 5.2 | 17 |  |
| Cc1cc(C(C)(C)C)c(O)c(C)c1CC1=NCCN1 [oxymetazoline] | 11.3 |  |  |
| CN1CCC2=C(C1)c1ccccc1Cc1ccccc12 [setiptiline] |  |  | EC50 (5-HT1FR [4]): 64.6 nM; EC50 (5-HT1eR [5]): 171 nM |
| CN1CCN2c3ncccc3Cc3ccccc3C2C1 (stereo not shown) [mirtazapine] |  |  | EC50 (5-HT1FR [6]): 236 nM |
